Experimental data reported in patent US20210253518A1, “KINASE INHIBITOR” (NISSAN CHEMICAL CORPORATION, priority 2018, published 2021).

Tested on: full-thickness skin wound
Assay: Mouse full-thickness skin wound model
Assay type: in vivo
Details: 1 mg/mL, 0.04 mL per wound site every 24 hr until day 12, negative control 854.2±119.2
Experimental: A full-thickness skin wound in which the skin on the back of a mouse was partially removed was prepared as described below, and the wound therapy promoting effect of the compound was evaluated by comparing the reduction rate of the wound area.
Compound K-1:J-1 was dissolved in a solvent (10% Pluronic F-68, 2% Propylene Glycol, 20 mM Tris buffer (pH 8.5)) at a concentration of 1 mg/mL, and administered by adding dropwise to the wound site (0.04 mL per one wound site). To the negative control, the solvent alone was administered by dropwise addition.
As the mouse, male BKS.Cg-Dock7m+/+Leprdb/J, 7-week-old, was purchased from CHARLES RIVER LABORATORIES JAPAN, INC. After removing the hair on the back, an 8 mm full-thickness skin wound was prepared using biopsy trepan (Kai Corporation) and protected with a coating material (Tegaderm transparent dressing, 3M). The wound preparation date was set as day 1, and 1 mg/mL compound K-1:J-1 was added dropwise at a dose of 0.04 mL per wound site every 24 hr until day 12. The area of the wound site was measured on days 1, 3, 6, 9, 13. The wound area on day 1 was set to 100%, and the total measured area was calculated as a percentage (%) with respect to the wound preparation date. Conducted in 6 cases in each group.

## CC/C(=N\NC(=O)NCc1cccc(O)c1)c1ccc(O)c(C)c1O [k-1:J-1]
  area under the wound area ratio (Area Under the Curve (AUC)): 659.6±163.7 %×day
